Columns and labels:
Type in all cases: biochemical
15-lipoxygenase = molecular target: T1, 15-lipoxygenase (Glycine max, UniProt P08170); experiment: 15-lipoxygenase inhibition, enzyme obtained from soybean; settings: read-out: Percent Inhibition, 15-lipoxygenase
T1 construct: 15-lipoxygenase obtained from soybean; from tissue; host or cells: soybean
T1 sequence (P08170 1-839): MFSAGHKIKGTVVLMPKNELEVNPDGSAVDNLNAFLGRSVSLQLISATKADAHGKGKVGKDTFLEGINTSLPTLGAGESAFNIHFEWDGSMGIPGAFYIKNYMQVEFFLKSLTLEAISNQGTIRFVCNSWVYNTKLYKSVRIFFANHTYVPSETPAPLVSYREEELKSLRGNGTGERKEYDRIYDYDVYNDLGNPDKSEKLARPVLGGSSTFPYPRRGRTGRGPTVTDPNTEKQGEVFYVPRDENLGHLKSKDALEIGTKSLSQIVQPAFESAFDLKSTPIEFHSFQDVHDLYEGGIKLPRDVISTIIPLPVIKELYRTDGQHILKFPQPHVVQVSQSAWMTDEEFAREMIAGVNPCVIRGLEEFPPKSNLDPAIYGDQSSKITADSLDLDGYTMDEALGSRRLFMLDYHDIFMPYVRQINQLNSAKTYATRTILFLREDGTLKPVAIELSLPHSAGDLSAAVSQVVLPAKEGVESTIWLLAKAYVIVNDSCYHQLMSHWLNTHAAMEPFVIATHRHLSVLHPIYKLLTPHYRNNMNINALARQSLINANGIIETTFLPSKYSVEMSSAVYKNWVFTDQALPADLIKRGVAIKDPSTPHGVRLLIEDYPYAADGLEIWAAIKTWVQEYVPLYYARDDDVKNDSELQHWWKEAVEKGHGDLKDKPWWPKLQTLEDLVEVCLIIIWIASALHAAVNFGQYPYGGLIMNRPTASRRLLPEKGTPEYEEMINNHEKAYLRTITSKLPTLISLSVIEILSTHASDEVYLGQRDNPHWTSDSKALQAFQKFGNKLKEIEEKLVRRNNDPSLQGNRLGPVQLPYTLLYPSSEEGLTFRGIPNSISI
Description: (§1) The compounds of this invention are potent inhibitors of 5-, 12-, and 15-lipoxygenases. An assay to determine 5-lipoxygenase activity was performed in incubations containing various concentrations of the test compound and the 20,000 g supernatant from 7.5 million homogenized RBL-1 cells. Reactions were initiated by addition of radiolabeled arachidonic acid and terminated by acidification and ether extraction. Reaction products were separated from nonconverted substrate by thin layer chromatography and measured by liquid scintillation spectroscopy. Inhibition of 5-lipoxygenase activity was calculated as the 50% intercept from linear regression analysis of percentage inhibition versus log concentration plots.
(§2) Inhibitory activities of the compounds of this invention against 12- and 15-lipoxygenase can be determined in the foregoing assay in which 12-lipoxygenase obtained from human platelets, or 15-lipoxygenase obtained from soybean, is substituted for the […] containing cell supernatant fraction.

12-lipoxygenase = molecular target: T2, 12-lipoxygenase (Homo sapiens, UniProt P18054); experiment: 12-lipoxygenase inhibition, enzyme obtained from human platelets; settings: read-out: Percent Inhibition, 12-Lipoxygenase
T2 construct: 12-lipoxygenase obtained from human platelets; from tissue; host or cells: human platelets
T2 sequence (P18054 1-663): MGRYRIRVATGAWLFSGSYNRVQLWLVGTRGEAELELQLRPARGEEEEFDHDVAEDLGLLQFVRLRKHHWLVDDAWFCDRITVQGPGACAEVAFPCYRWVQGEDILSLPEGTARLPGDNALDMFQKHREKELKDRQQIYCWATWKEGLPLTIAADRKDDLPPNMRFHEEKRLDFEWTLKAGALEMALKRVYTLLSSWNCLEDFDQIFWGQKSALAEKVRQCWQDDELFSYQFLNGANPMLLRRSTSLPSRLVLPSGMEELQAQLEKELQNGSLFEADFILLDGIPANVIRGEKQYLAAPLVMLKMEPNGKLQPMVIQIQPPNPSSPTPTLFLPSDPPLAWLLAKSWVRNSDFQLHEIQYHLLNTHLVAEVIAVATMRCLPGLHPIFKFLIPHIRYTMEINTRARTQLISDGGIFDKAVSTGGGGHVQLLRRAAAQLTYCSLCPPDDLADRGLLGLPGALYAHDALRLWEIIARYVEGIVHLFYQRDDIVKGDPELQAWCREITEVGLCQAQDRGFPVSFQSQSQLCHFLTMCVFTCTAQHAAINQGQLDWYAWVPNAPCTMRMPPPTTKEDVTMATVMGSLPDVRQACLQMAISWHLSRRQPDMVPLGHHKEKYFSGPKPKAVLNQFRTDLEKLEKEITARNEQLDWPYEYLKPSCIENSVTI
Description: as §1, §2

5-lipoxygenase = molecular target: T3, 5-lipoxygenase (Rattus norvegicus, UniProt P12527); experiment: 5-lipoxygenase inhibition, 20,000 g supernatant from homogenized RBL-1 cells, radiolabeled arachidonic acid; settings: for IC50: 5-lipoxygenase, RBL-1 supernatant, 50% intercept from linear regression of % inhibition vs log concentration
T3 construct: 20,000 g supernatant from 7.5 million homogenized RBL-1 cells; endogenous in cells; host or cells: RBL-1 cells, 20,000 g supernatant of homogenate
T3 sequence (P12527 1-673): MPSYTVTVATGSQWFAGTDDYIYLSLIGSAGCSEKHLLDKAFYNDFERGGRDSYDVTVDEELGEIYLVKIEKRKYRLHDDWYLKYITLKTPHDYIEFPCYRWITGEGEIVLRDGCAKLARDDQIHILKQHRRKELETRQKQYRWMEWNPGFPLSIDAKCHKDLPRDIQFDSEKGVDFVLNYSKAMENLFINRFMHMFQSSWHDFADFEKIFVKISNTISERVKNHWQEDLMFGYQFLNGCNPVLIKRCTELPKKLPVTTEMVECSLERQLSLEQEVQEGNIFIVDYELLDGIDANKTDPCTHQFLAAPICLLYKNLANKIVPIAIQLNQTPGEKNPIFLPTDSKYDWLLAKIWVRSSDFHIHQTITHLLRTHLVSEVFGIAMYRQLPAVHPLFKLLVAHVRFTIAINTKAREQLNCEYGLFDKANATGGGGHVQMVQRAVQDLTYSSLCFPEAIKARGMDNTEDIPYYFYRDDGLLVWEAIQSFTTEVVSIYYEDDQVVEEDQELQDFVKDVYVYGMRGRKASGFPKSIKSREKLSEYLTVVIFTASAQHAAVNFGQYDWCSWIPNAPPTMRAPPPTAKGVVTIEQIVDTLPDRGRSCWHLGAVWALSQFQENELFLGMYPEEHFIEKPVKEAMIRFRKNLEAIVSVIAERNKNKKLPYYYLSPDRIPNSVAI
Description: as §1

| inhibition at 10 µM (15-lipoxygenase) [%] | inhibition at 100 µM (15-lipoxygenase) [%] | inhibition at 10 µM (12-lipoxygenase) [%] | inhibition at 100 µM (12-lipoxygenase) [%] | IC50 (5-lipoxygenase) [µM] | inhibition at 100 µM (5-lipoxygenase; @ 100 uM, read-out: percentage inhibition of 5-lipoxygenase) [%] | inhibition at 30 µM (5-lipoxygenase; @ 30 uM, read-out: percentage inhibition of 5-lipoxygenase) [%] | SMILES |
| --- | --- | --- | --- | --- | --- | --- | --- |
| 59 | 95 | 93 | 98 | 5.3 |  |  | O=c1ccc2ccccc2n1O [Example 1, 1-hydroxyquinol-2-(1H)-one] |
| 5 | 14 | 66 | 94 | 24 |  |  | COC(=O)c1cc2ccccc2n(O)c1=O [Example 2, 3-Carbomethoxy-1-hydroxyquinol-2(1H)-one] |
|  |  |  |  | 4.2 |  |  | O=c1c(Br)cc2ccccc2n1O [Example 3, 3-Bromo-1-hydroxyquinol-2-(1H)-one] |
|  |  |  |  | 1.4 |  |  | Cc1cc(=O)n(O)c2ccccc12 [Example 4, 4-Methyl-1-hydroxyquinol-2(1H)-one] |
|  |  |  |  | 1.6 |  |  | COc1ccc2c(c1)c(Cl)cc(=O)n2O [Example 5, 4-Chloro-6-methoxy-1-hydroxyquinol-2(1H)-one] |
| 27 | 98 | 83 | 98 | 3.7 |  |  | O=c1ccc2c([N+](=O)[O-])cccc2n1O [Example 6, 5-Nitro-1-hydroxyquinol-2(1H)-one] |
|  |  |  |  | 2 |  |  | Cc1ccc2c(ccc(=O)n2O)c1[N+](=O)[O-] [Example 7, 6-Methyl-5-nitro-1-hydroxyquinol-2(1H)-one] |
| 95 | 100 | 95 | 97 | 0.87 |  |  | O=c1ccc2cc(Cl)ccc2n1O [Example 8, 6-Chloro-1-hydroxyquinol-2(1H)-one] |
|  |  |  |  | 1.1 |  |  | Cc1ccc2c(ccc(=O)n2O)c1 [Example 9, 6-Methyl-1-hydroxyquinol-2-(1H)-one] |
| 62 | 94 | 90 | 97 | 1.5 |  |  | COc1ccc2c(ccc(=O)n2O)c1 [Example 10, 6-Methoxy-1-hydroxyquinol-2-(1H)-one] |
| 2 | 32 | 67 | 90 | 14 |  |  | O=c1ccc2cc([N+](=O)[O-])ccc2n1O [Example 11, 6-Nitro-1-hydroxyquinol-2(1H)-one] |
| 97 | 100 | 97 | 98 | 0.34 |  |  | O=c1ccc2cc(-c3ccccc3)ccc2n1O [Example 12, 6-Phenyl-1-hydroxyquinol-2(1H)-one] |
| 61 | 97 | 94 | 97 | 0.98 |  |  | Cc1ccc2ccc(=O)n(O)c2c1 [Example 13, 7-Methyl-1-hydroxyquinol-2(1H)-one] |
|  |  |  |  | 0.84 |  |  | O=c1ccc2c3ccccc3ccc2n1O [Example 14, 5,6-Benzo-1-hydroxyquinol-2(1H)-one] |
| 13 | 60 | 96 | 98 | 2.5 |  |  | O=c1c2ccccc2c2ccccc2n1O [Example 15, 3,4-Benzo-1-hydroxyquinol-2(1H)-one] |
| 40 | 93 | 93 | 98 |  |  |  | CC(C)c1cc2ccccc2n(O)c1=O [Example 16, 3-Isopropyl-1-hydroxy-quinol-2(1H)--one] |
|  |  |  |  | 6 |  |  | O=c1c2ccccc2ccn1O [Example 27, 2-hydroxyquinol-1(2H)-one] |
|  |  |  |  |  | 54 |  | O=c1c2ccccc2cc(O)n1O [Example 28, 2,3-Dihydroxyquinol-1(2H)-one] |
| 43 | 94 | 89 | 96 | 2.6 |  |  | O=c1c2ccccc2c(Br)cn1O [Example 29, 4-Bromo-2-hydroxyquinol-1(2H)-one] |
| 10 | 12 | 54 | 83 |  |  | 32 | O=c1c2ccccc2c([N+](=O)[O-])cn1O [Example 30, 4-Nitro-2-hydroxyquinol-1(2H)-one] |
| 14 | 50 | 95 | 99 | 0.45 |  |  | O=c1c2ccccc2c(-c2ccccc2)cn1O [Example 31, 4-Phenyl-2-hydroxyquinol-1(2H)-one] |
|  |  |  |  | 3.9 |  |  | Cc1cn(O)c(=O)c2ccccc12 [Example 32, 4-Methyl-2-hydroxy-quinol-1(2H)-one] |
|  |  |  |  | 2.4 |  |  | Cc1cccc2c(=O)n(O)ccc12 [Example 33, 5-Methyl-2-hydroxyquinol-2(1H)-one] |
| 20 | 45 | 90 | 98 | 2.5 |  |  | COc1ccc2ccn(O)c(=O)c2c1 [Example 34] |
|  |  |  |  | 1.5 |  |  | O=c1c2ccccc2c(-c2ccccc2)c(-c2ccccc2)n1O [Example 35] |
